Laboratory results reported in ChEMBL document CHEMBL1132933, “Protease inhibitors: synthesis and QSAR study of novel classes of nonbasic thrombin inhibitors incorporating sulfonylguanidine and O-methylsulfonylisourea moieties at P1” (J Med Chem, 2000).

molecular target: Trypsin (Homo sapiens, UniProt P07477+P07478+P35030); test: Inhibitory activity against human trypsin (using Chromozym TH as the substrate); type: protein assay

SMILES	Ki
COC(=N)NS(=O)(=O)c1ccc(NC(=O)C2CCCN2C(=O)[C@H](Cc2ccccc2)NC(=O)NS(=O)(=O)c2ccc(C)cc2)cc1 (stereo partly drawn)	1420 nM
COC(=N)NS(=O)(=O)c1cccc([N+](=O)[O-])c1	1375 nM
N=C(N)NNS(=O)(=O)c1ccc(NC(=O)C2CCCN2C(=O)[C@H](Cc2ccccc2)NC(=O)OCc2ccccc2)cc1 (stereo partly drawn)	1400 nM
COC(=N)NS(=O)(=O)c1ccccc1C(=O)O	1550 nM
COC(=N)NS(=O)(=O)c1ccc(NC(=O)C2CCCN2C(=O)[C@H](Cc2ccccc2)NC(=O)OCc2ccccc2)cc1 (stereo partly drawn)	1435 nM
COC(=N)NS(=O)(=O)c1ccc(OC)cc1	1460 nM
N=C(N)NNS(=O)(=O)c1cccc([N+](=O)[O-])c1	1235 nM
N=C(N)NS(=O)(=O)c1ccc2ccccc2c1	1300 nM
N=C(N)NNS(=O)(=O)c1cccc(C(=O)O)c1	1520 nM
Cc1ccc(S(=O)(=O)NC(=O)N[C@@H](Cc2ccccc2)C(=O)N2CCCC2C(=O)Nc2ccc(S(=O)(=O)NN=C(N)N)cc2)cc1 (stereo partly drawn)	1450 nM
COC(=N)NS(=O)(=O)c1ccc(NC(C)=O)cc1	1345 nM
COC(=N)NS(=O)(=O)c1ccc(OC)c(N)c1	1235 nM
COC(=N)NS(=O)(=O)c1ccc(NC(=O)[C@@H](Cc2ccccc2)NC(=O)NS(=O)(=O)c2ccc(C)cc2)cc1	1320 nM
COC(=N)NS(=O)(=O)c1ccc(NC(=O)[C@H](Cc2c[nH]cn2)NC(=O)CNC(=O)NS(=O)(=O)c2ccc(C)cc2)cc1	1550 nM
N=C(N)NNS(=O)(=O)c1cccc2ccccc12	1200 nM
COc1ccc(S(=O)(=O)NN=C(N)N)cc1	1275 nM
COC(=N)NS(=O)(=O)c1ccc(NC(=O)CNC(=O)[C@@H]2CCCN2C(=O)NS(=O)(=O)c2ccc(C)cc2)cc1	1540 nM
N=C(N)NS(=O)(=O)c1ccc(I)cc1	1350 nM
COc1ccc(S(=O)(=O)N=C(N)N)cc1	1320 nM
COC(=N)NS(=O)(=O)c1cccc(N)c1	1370 nM
COC(=N)NS(=O)(=O)c1ccc([N+](=O)[O-])c(Cl)c1	1200 nM
COC(=N)NS(=O)(=O)c1c(F)c(F)c(F)c(F)c1F	1425 nM

SMILES	Ki
N=C(N)NNS(=O)(=O)c1ccc([N+](=O)[O-])c(Cl)c1	1010 nM
N=C(N)NS(=O)(=O)c1ccc([N+](=O)[O-])c(Cl)c1	990 nM
CC1(C)C2CCC1(CS(=O)(=O)N=C(N)N)C(=O)C2 (stereo not drawn)	980 nM
COC(=N)NS(=O)(=O)c1cccs1	1350 nM
N=C(N)NNS(=O)(=O)c1cc(Cl)cc(Cl)c1O	1100 nM
COC(=N)NS(=O)(=O)c1ccc(Br)cc1	1370 nM
COC(=N)NS(=O)(=O)Cc1ccccc1	1900 nM
N=C(N)NCCCNC(=O)[C@@H]1CCCCN1C(=O)C(CC1CCCCC1)NCC(=O)O (stereo partly drawn)	540 nM
N=C(N)NS(=O)(=O)C(F)(F)C(F)(F)C(F)(F)C(F)(F)F	2100 nM
N=C(N)NNS(=O)(=O)c1c(F)c(F)c(F)c(F)c1F	1350 nM
COC(=N)NS(=O)(=O)c1ccc(NC(=O)C2CCCN2C(=O)NS(=O)(=O)c2ccc(C)cc2)cc1 (stereo not drawn)	1500 nM
COC(=N)NS(=O)(=O)N(C)C	3300 nM
Cc1ccc(S(=O)(=O)NC(=O)NCC(=O)N[C@@H](Cc2c[nH]cn2)C(=O)Nc2ccc(S(=O)(=O)N=C(N)N)cc2)cc1	1455 nM
N=C(N)NS(=O)(=O)c1cccc2ccccc12	1230 nM
N=C(N)NNS(=O)(=O)c1ccc2ccccc2c1	1285 nM
COC(=N)NS(=O)(=O)c1ccc(C)cc1	2150 nM
CN(C)S(=O)(=O)N=C(N)N	2890 nM
CN(C)c1cccc2c(S(=O)(=O)NN=C(N)N)cccc12	1200 nM
N=C(N)NS(=O)(=O)c1ccccc1C(=O)O	1445 nM
N=C(N)NS(=O)(=O)C(F)(F)F	1275 nM
N=C(N)NS(=O)(=O)c1c(Br)c(Br)c(Br)c(Br)c1C(=O)O	1250 nM

molecular target: Prothrombin (Homo sapiens, UniProt P00734); test: Inhibitory activity against human thrombin (using Chromozym TH as the substrate)

SMILES	Ki
COC(=N)NS(=O)(=O)c1ccc(NC(=O)C2CCCN2C(=O)[C@H](Cc2ccccc2)NC(=O)NS(=O)(=O)c2ccc(C)cc2)cc1 (stereo partly drawn)	18 nM
COC(=N)NS(=O)(=O)c1cccc([N+](=O)[O-])c1	213 nM
COC(=N)NS(=O)(=O)c1ccccc1C(=O)O	325 nM
COC(=N)NS(=O)(=O)c1ccc(NC(=O)C2CCCN2C(=O)[C@H](Cc2ccccc2)NC(=O)OCc2ccccc2)cc1 (stereo partly drawn)	16 nM
COC(=N)NS(=O)(=O)c1ccc(OC)cc1	276 nM
N=C(N)NNS(=O)(=O)c1cccc([N+](=O)[O-])c1	170 nM
N=C(N)NS(=O)(=O)c1ccc2ccccc2c1	132 nM
N=C(N)NNS(=O)(=O)c1cccc(C(=O)O)c1	112 nM
Cc1ccc(S(=O)(=O)NC(=O)N[C@@H](Cc2ccccc2)C(=O)N2CCCC2C(=O)Nc2ccc(S(=O)(=O)NN=C(N)N)cc2)cc1 (stereo partly drawn)	10 nM
COC(=N)NS(=O)(=O)c1ccc(NC(C)=O)cc1	202 nM
COC(=N)NS(=O)(=O)c1ccc(OC)c(N)c1	96 nM
COC(=N)NS(=O)(=O)c1ccc(NC(=O)[C@@H](Cc2ccccc2)NC(=O)NS(=O)(=O)c2ccc(C)cc2)cc1	60 nM
COC(=N)NS(=O)(=O)c1ccc(NC(=O)[C@H](Cc2c[nH]cn2)NC(=O)CNC(=O)NS(=O)(=O)c2ccc(C)cc2)cc1	21 nM
N=C(N)NNS(=O)(=O)c1cccc2ccccc12	125 nM
COc1ccc(S(=O)(=O)NN=C(N)N)cc1	227 nM
COC(=N)NS(=O)(=O)c1ccc(NC(=O)CNC(=O)[C@@H]2CCCN2C(=O)NS(=O)(=O)c2ccc(C)cc2)cc1	27 nM
N=C(N)NS(=O)(=O)c1ccc(I)cc1	210 nM
COc1ccc(S(=O)(=O)N=C(N)N)cc1	240 nM
COC(=N)NS(=O)(=O)c1cccc(N)c1	99 nM
COC(=N)NS(=O)(=O)c1ccc([N+](=O)[O-])c(Cl)c1	177 nM

SMILES	Ki
COC(=N)NS(=O)(=O)c1c(F)c(F)c(F)c(F)c1F	153 nM
N=C(N)NNS(=O)(=O)c1ccc([N+](=O)[O-])c(Cl)c1	154 nM
N=C(N)NS(=O)(=O)c1ccc([N+](=O)[O-])c(Cl)c1	160 nM
CC1(C)C2CCC1(CS(=O)(=O)N=C(N)N)C(=O)C2 (stereo not drawn)	320 nM
COC(=N)NS(=O)(=O)c1cccs1	213 nM
N=C(N)NNS(=O)(=O)c1cc(Cl)cc(Cl)c1O	98 nM
COC(=N)NS(=O)(=O)c1ccc(Br)cc1	265 nM
COC(=N)NS(=O)(=O)Cc1ccccc1	450 nM
N=C(N)NS(=O)(=O)C(F)(F)C(F)(F)C(F)(F)C(F)(F)F	520 nM
N=C(N)NNS(=O)(=O)c1c(F)c(F)c(F)c(F)c1F	123 nM
COC(=N)NS(=O)(=O)c1ccc(NC(=O)C2CCCN2C(=O)NS(=O)(=O)c2ccc(C)cc2)cc1 (stereo not drawn)	63 nM
COC(=N)NS(=O)(=O)N(C)C	1360 nM
Cc1ccc(S(=O)(=O)NC(=O)NCC(=O)N[C@@H](Cc2c[nH]cn2)C(=O)Nc2ccc(S(=O)(=O)N=C(N)N)cc2)cc1	18 nM
N=C(N)NS(=O)(=O)c1cccc2ccccc12	136 nM
N=C(N)NNS(=O)(=O)c1ccc2ccccc2c1	129 nM
COC(=N)NS(=O)(=O)c1ccc(C)cc1	328 nM
CN(C)c1cccc2c(S(=O)(=O)NN=C(N)N)cccc12	130 nM
N=C(N)NS(=O)(=O)c1ccccc1C(=O)O	240 nM
N=C(N)NS(=O)(=O)C(F)(F)F	890 nM
N=C(N)NS(=O)(=O)c1c(Br)c(Br)c(Br)c(Br)c1C(=O)O	225 nM
